Patent US11744830B2, “Ameliorative agent for cytokine release syndrome and so on” (TORII PHARMACEUTICAL CO., LTD., priority 2018, dated 2023)

Experiments:
Type in all cases: cell-based, human
[1] = test system: OPN production from CD14^+ cells; experiment: LPS stimulation-induced OPN production in CD14^+ cells; details: LPS
Procedure: (§1) Cryopreserved PBMCs were quickly thawed in a 37° C. thermostat and added to a tube containing medium. After centrifugation (at room temperature at 300 g for 10 minutes) to remove the supernatant, the cells were suspended again in the medium, followed by counting the number of viable cells. The cell suspension was centrifuged (at room temperature at 300 g for 10 minutes) to remove the supernatant, followed by addition of MACS Buffer to suspend the cells, to which Human CD14 MicroBeads were further added. After being allowed to stand on ice for 15 minutes, the cell suspension was diluted with MACS Buffer and centrifuged (at room temperature at 300 g for 10 minutes) to remove the supernatant. MACS Buffer was added to the tube, and the cells were suspended and then applied to a separatory column to separate CD14^+ cells. The CD14^+ cell fraction was diluted with the medium and then centrifuged (at room temperature at 300 g for 10 minutes). The supernatant was removed and the cells were suspended in the medium (1 mL), followed by counting the number of viable cells. The cell suspension was adjusted with the medium to 2.4×10^5 or 3×10^5 cells/mL and seeded in a 96-well plate (2.4×10^4 cells/well), which was then allowed to stand in a CO2 incubator for 1 to 2 hours.
The collected culture supernatants were quantified for OPN using Human OPN DuoSet ELISA.

[2] = test system: IL-1β production in CD14^+ cells; experiment: LPS stimulation-induced IL-1β production in CD14^+ cells; details: LPS
Procedure: as §1
The culture supernatants collected in 1.2.10 were quantified for IL-1β using Human IL-1β DuoSet ELISA.

[3] = test system: IL-18 production from LPS-pretreated CD14^+ cells; experiment: ATP stimulation-induced IL-18 production from LPS-pretreated CD14^+ cells; details: LPS-pretreated CD14^+ cells, ATP
Procedure: Cryopreserved PBMCs were quickly thawed in a 37° C. thermostat and added to a tube containing medium. After centrifugation (at room temperature at 300 g for 10 minutes) to remove the supernatant, the cells were suspended again in the medium, followed by counting the number of viable cells. The cell suspension was centrifuged (at room temperature at 300 g for 10 minutes) to remove the supernatant, followed by addition of MACS Buffer to suspend the cells, to which Human CD14 MicroBeads were further added. After being allowed to stand on ice for 15 minutes, the cell suspension was diluted with MACS Buffer and centrifuged (at room temperature at 300 g for 10 minutes) to remove the supernatant.
MACS Buffer was added to the tube, and the cells were suspended and then applied to a separatory column to separate CD14^+ cells. The CD14^+ cell fraction was diluted with the medium and then centrifuged (at room temperature at 300 g for 10 minutes). The supernatant was removed and the cells were suspended in the medium (1 mL), followed by counting the number of viable cells. The cell suspension adjusted with the medium to 2×10^6 cells/mL was seeded in a 96-well plate (1×10^5 cells/well) and allowed to stand in a CO2 incubator for 1 to 2 hours. […] The cells were then stimulated with LPS (final concentration: 500 ng/mL) for 6 hours at 37° C. and an ATP solution (final concentration: 5 mM) was added thereto, and the 96-well plate was further allowed to stand in a CO2 incubator for 2 hours to collect the culture supernatants.
The collected culture supernatants were quantified for IL-18 using Human IL-18 DuoSet ELISA.

[4] = test system: VEGF production from macrophages; experiment: LPS stimulation-induced VEGF production in macrophages; details: Macrophages, LPS
Procedure: CD14^+ cells were cultured in 20 ng/mL M-CSF-containing RPMI medium at 37° C. for 5 days to induce differentiation into macrophages (during which the medium was replaced once every two days with fresh 20 ng/mL M-CSF-containing RPMI medium). […] The macrophages were then stimulated with LPS (final concentration: 100 ng/mL) or RPMI medium alone at 37° C. for 3 days, followed by collecting the culture supernatants. The collected culture supernatants were quantified for VEGF using Human VEGF DuoSet ELISA.

[5] = test system: MCP-1 production; experiment: CRS toxicity evaluation system using CAR-T cells: MCP-1; details: CRS toxicity evaluation system using CAR-T cells
Procedure: (§2) The supernatants were collected at 72 hours after the initiation of culture, and various cytokines in each supernatant were measured by FACS multiplex assay.

[6] = test system: IL-8 production; experiment: CRS toxicity evaluation system using CAR-T cells: IL-8; details: CRS toxicity evaluation system using CAR-T cells
Procedure: as §2

[7] = test system: TNF-α production; experiment: CRS toxicity evaluation system using CAR-T cells: TNF-α; details: CRS toxicity evaluation system using CAR-T cells
Procedure: as §2

[8] = test system: IL-1β production; experiment: CRS toxicity evaluation system using CAR-T cells: IL-1β; details: CRS toxicity evaluation system using CAR-T cells
Procedure: as §2

Tocilizumab: interleukin (IL)-6R antibody (tocilizumab) approved at the same time as CAR-T cell therapy
no suppressive effect: suppressive effect on OPN production [1] | suppressive effect on IL-1β production [2] | suppressive effect on IL-18 production [3] | effect on VEGF production from macrophages [4] | suppressive effect on MCP-1 production [5] | suppressive effect on IL-8 production [6] | suppressive effect on TNF-α [7] | suppressive effect on IL-1β [8]
